Structures are written as SMILES.

This series is described as follows: Degradation of Compound A by hydrolysis. Format: physicochemical. An excerpt:
In another aspect is an anhydrous pharmaceutical composition and dosage form. Such anhydrous forms can reduce or eliminate degradation of active ingredients in the composition resulting from heat or water exposure. For example, the addition of water (e.g., 5 percent) is widely accepted in the pharmaceutical arts as a means of simulating shelf-life, e.g., long-term storage in order to determine characteristics such as shelf-life or the stability of formulations over time. See, e.g., Jens T. Carstensen, Drug Stability: Principles & Practice, 2d. Ed., Marcel Dekker, NY, N.Y., 1995, pp. 379-80. The effect of water on a formulation can be of great significance since moisture or humidity are commonly encountered during manufacture, handling, packaging, storage, shipment, and use of formulations.

In the case of `Cc1nc2cccc(N)c2c(=O)n1C1CCC(=O)NC1=O` (stereo not shown) [Compound A, 3-(5-amino-2-methyl-4-oxo-4H-quinazolin-3-yl)-piperidine-2,6-dione], the degradation by hydrolysis result is listed as “easily degraded by hydrolysis”.

(Values after US10064863B2, “Formulations of 3-(5-amino-2-methyl-4-oxo-4H-quinazolin-3-yl)-piperidine-2,6-dione” (Celgene Corporation, priority 2015, dated 2018).)
